Consider six compounds from US20240335452A1, “COMPOSITIONS AND METHODS OF COMBINATION THERAPY FOR TARGETING LYMPHOMA” (Cullgen (Shanghai), Inc., priority 2021, published 2024).

For one assay, the system named is OCI-LY7 cells. Nature of the assay: Cell viability assay (CellTiter-Glo) in OCI-LY7 cells. Type of assay: cell-based, human. The following applies: for IC50: Homo sapiens, 120 h, OCI-LY7 cells (EZH2-wild type), in the presence of 1 μM EPZ-6438, 5 days; for cell viability of the combination versus the compound alone (FIG. 2B, 2D): OCI-LY7, combination with any of CC-122, CC-220, or CC-92480 (so in the source); for cell viability, response of the cells to the single agent: OCI-LY7, single agent, 5 days. As to the method: (§1) Experiments were performed in cultured human cells to assess the efficacy of combined EZH2 inhibitor and immunomodulatory drug (e.g., an IMiD) treatment using an EZH2-mutant DLBCL cell line, SU-DHL-10, and an EZH2-wild type line, OCI-LY7. Cells were purchased from Nanjing Cobioer Biotechnology. SU-DHL-10 and OCI-LY7 cells were cultured at 37° C. with 5% CO2 in RPMI 1640 Medium supplemented with 10% fetal bovine serum. Cells were authenticated using the short tandem repeat (STR) assays. Mycoplasma test results were negative.
(§2) The cultured cells were seeded at a density of 5000 cells per well in 96-well assay plates and treated with test compounds at 10 μM followed by a 11-point 3-fold serial dilution or an 8-point 10-fold serial dilution. Cell viability was determined after 5 days, using the CellTiter-Glo assay kit (Promega) according to the manufacturer's instructions. The dose-response curves were determined and IC50 values were calculated using the GraphPad Prism software following a nonlinear regression (least squares fit) method. Each data point in the figure represents the mean values of at least two technical replicates ± standard deviation.
(§3) Cells were treated with EZH2 inhibitors in the presence of IMiDs at concentrations sufficient to induce degradation of IKZF1 and IKZF3 but not enough to kill cells. CC-122 and CC-220 were tested at a concentration of 1 μM; CC-92480 and CFT7455 were tested at a concentration of 1 nM; and CC-99282 was tested at a concentration of 10 nM.

The subject of the next assay is SU-DHL-10 cells. Nature of the assay: Cell viability assay (CellTiter-Glo) in SU-DHL-10 cells. It counts as cell-based, human. The following applies: for IC50: Homo sapiens, SU-DHL10, 120 h, SU-DHL-10 cells (EZH2-mutant DLBCL), in the presence of 1 μM EPZ-6438, 5 days; for cell viability of the combination versus the compound alone (FIG. 2A, 2C): SU-DHL-10, combination with any of CC-122, CC-220, or CC-92480 (so in the source); for cell viability, response of the cells to the single agent: SU-DHL-10, single agent. As to the method:
as §1, §2, §3

Where [1] appears, read: OCI-LY7, in the presence of 1 μM C24, 5 days.
Setting [2] is: OCI-LY7, in the presence of 1 μM CPI-1205, 5 days.
[3] abbreviates: OCI-LY7, in the presence of 1 μM EPZ-6438, 5 days.
The mark [4] stands for this setting: OCI-LY7, in the presence of 1 μM GSK126, 5 days.
Where [5] appears, read: SU-DHL-10, in the presence of 1 μM CPI-1205, 5 days.
Setting [6] is: SU-DHL-10, in the presence of 1 μM EPZ-6438, 5 days.
The mark [7] stands for this setting: SU-DHL-10, in the presence of 1 μM GSK126, 5 days.
Setting [8] is: SU-DHL-10, in the presence of C24 (1 μM with CC-122, 2 μM with CC-220), 5 days.
Setting [9] is: OCI-LY7, in the presence of 1 nM CFT7455, 5 days.
Where [10] appears, read: OCI-LY7, in the presence of 10 nM CC-99282, 5 days.
[11] abbreviates: SU-DHL-10, in the presence of 1 nM CFT7455, 5 days.
Where [12] appears, read: SU-DHL-10, in the presence of 10 nM CC-99282, 5 days.
Setting [13] is: OCI-LY7, in the presence of 1 nM CC-92480, 5 days.
Setting [14] is: OCI-LY7, in the presence of 1 μM CC-122, 5 days.
The mark [15] stands for this setting: OCI-LY7, in the presence of 1 μM CC-220, 5 days.
Setting [16] is: SU-DHL-10, in the presence of 1 nM CC-92480, 5 days.
[17] abbreviates: SU-DHL-10, in the presence of 1 μM CC-122, 5 days.
Where [18] appears, read: SU-DHL-10, in the presence of 1 μM CC-220, 5 days.

“Also recorded” adds a separate entry of the source.

One may read the IC50 as the concentration at which inhibition is half-maximal.

As for `Cc1nc2cccc(N)c2c(=O)n1C1CCC(=O)NC1=O` (stereo not shown) [CC-122, avadomide], the IC50 in the assay on OCI-LY7 cells worked out at 380 nM; in the assay on SU-DHL-10 cells, 89 nM. The “cell viability of the combination versus the compound alone (FIG. 2B, 2D)” value in the assay with OCI-LY7 cells is “lowered cell viability more than treatment with CC-122 alone”. For the same compound, the “cell viability (sensitivity of the cells to the compound in combination)” value in the assay with OCI-LY7 cells (setting [1]), with OCI-LY7 cells (setting [2]), in the assay on OCI-LY7 cells (setting [3]), in the assay with OCI-LY7 cells (setting [4]), in the assay with SU-DHL-10 cells (setting [5]) and in the assay with SU-DHL-10 cells (setting [6]) was “highly sensitive” each time. The “cell viability (sensitivity of the cells to the compound in combination)” value with SU-DHL-10 cells (setting [7]) and in the assay on SU-DHL-10 cells (setting [8]) was “highly sensitive” throughout. Also, the “cell viability, response of the cells to the single agent” value (“cell viability, response of the cells” for short) is recorded as “modestly responsive” in the assay on OCI-LY7 cells and “refractory” in the assay with SU-DHL-10 cells (5 days). The “cell viability of the combination versus the compound alone (FIG. 2A, 2C)” value in the assay on SU-DHL-10 cells was “lowered cell viability more than treatment with CC-122 alone”.
Regarding `O=C1CC[C@H](N2Cc3c(OCc4ccc(CN5CCOCC5)cc4)cccc3C2=O)C(=O)N1` [CC-220, iberdomide], the IC50 in the assay with OCI-LY7 cells was 30 nM; with SU-DHL-10 cells, 9.5 nM. In addition, the “cell viability of the combination versus the compound alone (FIG. 2B, 2D)” value in the assay with OCI-LY7 cells is reported as “lowered cell viability more than treatment with CC-220 alone”. The “cell viability (sensitivity of the cells to the compound in combination)” value in the assay on OCI-LY7 cells (setting [1]), with OCI-LY7 cells (setting [2]), in the assay with OCI-LY7 cells (setting [3]), in the assay with OCI-LY7 cells (setting [4]), in the assay with SU-DHL-10 cells (setting [5]) and in the assay on SU-DHL-10 cells (setting [6]) was “highly sensitive” throughout. In addition, the “cell viability (sensitivity of the cells to the compound in combination)” value in the assay with SU-DHL-10 cells (setting [7]) and with SU-DHL-10 cells (setting [8]) was “highly sensitive” throughout. For the same compound, the “cell viability, response of the cells” value in the assay with OCI-LY7 cells is recorded as “modestly responsive”; in the assay with SU-DHL-10 cells (5 days), “refractory”. Also, the “cell viability of the combination versus the compound alone (FIG. 2A, 2C)” value in the assay on SU-DHL-10 cells is given as “lowered cell viability more than treatment with CC-220 alone”.
In the case of `COC1CN(C2CCC([C@@]3(C)Oc4c(Cl)cc(C(=O)NCc5c(SC)cc(C)[nH]c5=O)c(C)c4O3)CC2)C1` (stereo partly drawn) [CPI-0209, (2R)-7-chloro-2-(4-(3-methoxyazetidin-1-yl)cyclohexyl)-2,4-dimethyl-N-((6-methyl-4-(methylthio)-2-oxo-1,2-dihydropyridin-3-yl)methyl)benzo[d][1,3]dioxole-5-carboxamide], the “cell viability (sensitivity of the cells to the compound in combination)” value in the assay on OCI-LY7 cells (setting [9]), with OCI-LY7 cells (setting [10]), in the assay on SU-DHL-10 cells (setting [11]) and in the assay with SU-DHL-10 cells (setting [12]) was “highly sensitive; also recorded: lowered cell viability more than treatment with CPI-0209 alone” throughout. For the same compound, the entries for the “cell viability, response of the cells” value with OCI-LY7 cells and in the assay on SU-DHL-10 cells (5 days) were “modestly responsive” and “moderately responsive”, respectively.
With `COc1cc(C)[nH]c(=O)c1CNC(=O)c1c(C)n([C@H](C)C2CCN(CC(F)(F)F)CC2)c2ccccc12` [CPI-1205, lirametostat], the “cell viability (sensitivity of the cells to the compound in combination)” value in the assay on OCI-LY7 cells (setting [13]), in the assay with OCI-LY7 cells (setting [14]), in the assay on OCI-LY7 cells (setting [15]), in the assay on SU-DHL-10 cells (setting [16]), in the assay on SU-DHL-10 cells (setting [17]) and in the assay on SU-DHL-10 cells (setting [18]) was “highly sensitive; also recorded: lowered cell viability more than treatment with CPI-1205 alone” in each case.
As for `CC[C@H](C)n1cc(C)c2c(C(=O)NCc3c(C)cc(C)[nH]c3=O)cc(-c3ccc(N4CCNCC4)nc3)cc21` [GSK126, (S)-1-(sec-butyl)-N-((4,6-dimethyl-2-oxo-1,2-dihydropyridin-3-yl)methyl)-3-methyl-6-(6-(piperazin-1-yl)pyridin-3-yl)-1H-indole-4-carboxamide], the “cell viability (sensitivity of the cells to the compound in combination)” value in the assay on OCI-LY7 cells (setting [13]), in the assay with OCI-LY7 cells (setting [14]), in the assay on OCI-LY7 cells (setting [15]), in the assay with SU-DHL-10 cells (setting [16]), in the assay with SU-DHL-10 cells (setting [17]) and in the assay on SU-DHL-10 cells (setting [18]) was “highly sensitive; also recorded: lowered cell viability more than treatment with GSK126 alone” each time.
For `CCc1c(N(CC)C2CCOCC2)cc2oc(CN3CCCCC3)cc2c1C(=O)NCc1c(C)cc(C)[nH]c1=O` [SHR2554, N-((4,6-dimethyl-2-oxo-1,2-dihydropyridin-3-yl)methyl)-5-ethyl-6-(ethyl(tetrahydro-2H-pyran-4-yl)amino)-2-(piperidin-1-ylmethyl)benzofuran-4-carboxamide], the “cell viability (sensitivity of the cells to the compound in combination)” value in the assay on OCI-LY7 cells (setting [9]), in the assay with OCI-LY7 cells (setting [10]), with SU-DHL-10 cells (setting [11]) and in the assay with SU-DHL-10 cells (setting [12]) was “highly sensitive; also recorded: lowered cell viability more than treatment with SHR2554 alone” each time. Moreover, the “cell viability, response of the cells” value was “refractory” in the assay with OCI-LY7 cells and “modestly responsive” in the assay with SU-DHL-10 cells (5 days).
